Source: ChEMBL document CHEMBL1153133, “2,4-Diaminopyrimidine MK2 inhibitors. Part I: Observation of an unexpected inhibitor binding mode” (Bioorg Med Chem Lett, 2010)
pIC50: −log10 of the molar value.

What was measured:
[1] = molecular target: T1, MAP kinase-activated protein kinase 2 (Homo sapiens, UniProt P49137); assay: Inhibition of human recombinant phospho-MK2 (36-400) by HTRF assay
[2] = molecular target: T1, MAP kinase-activated protein kinase 2; assay: Displacement of [8-3H]ATP from human recombinant MK2 (36-400) by scintillation proximity assay
[3] = molecular target: T1, MAP kinase-activated protein kinase 2; assay: Displacement of [8-3H]ATP from human recombinant MK2 (41-364) by scintillation proximity assay

T1 sequence (P49137 whole entry): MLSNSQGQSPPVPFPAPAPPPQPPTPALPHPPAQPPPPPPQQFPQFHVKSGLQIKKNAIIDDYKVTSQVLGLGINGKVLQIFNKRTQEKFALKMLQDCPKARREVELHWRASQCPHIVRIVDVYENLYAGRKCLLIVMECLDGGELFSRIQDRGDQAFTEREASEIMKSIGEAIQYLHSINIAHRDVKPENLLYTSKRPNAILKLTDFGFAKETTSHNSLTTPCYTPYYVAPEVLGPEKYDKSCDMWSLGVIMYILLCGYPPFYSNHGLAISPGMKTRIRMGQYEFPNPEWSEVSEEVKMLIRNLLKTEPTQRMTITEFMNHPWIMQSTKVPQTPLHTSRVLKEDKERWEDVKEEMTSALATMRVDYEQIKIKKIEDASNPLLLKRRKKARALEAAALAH

Q: What does the source list for `Nc1ncnc2c1ncn2[C@@H]1O[C@H](COP(=O)(O)OP(=O)(O)OP(=O)(O)O)[C@@H](O)[C@H]1O` (single isomer, unassigned) [ADENOSINE TRIPHOSPHATE]?
A: pIC50 [1]: 5.55; pIC50 [2]: 5.20; pIC50 [3]: 4.92
